Laboratory results as given in US12384969B2, “Enhancement of soil characteristics with lactobionate compounds” (Leprino Foods Company, priority 2017, dated 2025).
Values belong to the compound of their own block, whether it stands above or below them.

Tests used:
soil microbial biomass = assay: Soil microbial biomass carbon (MBC), chloroform-fumigation extraction, two-month laboratory soil incubation
[1] = Water absorbed after exposure to 100% relative humidity for 4 hours (FIG. 6); type: physicochemical; details: nine substances plus control
Excerpt: When one of the hydroxyl groups occurs in the alpha position, the PHA is a polyhydroxy alpha-hydroxy acid (AHA); when an additional sugar is attached to the PHA structure the molecule is a bionic acid. […] The multiple hydroxyl groups in PHAs attract and hydrogen bond surrounding water molecules, which increase the humectant properties of the compounds.

[2] = Akron, CO (Ak) soil, HC, 1 month
[3] = Akron, CO (Ak) soil, LC, 1 month
[4] = Fresno, CA (Fr) soil, HC, 1 month
[5] = Fresno, CA (Fr) soil, HC, 2 wks
[6] = Fresno, CA (Fr) soil, LC, 1 month
[7] = Fresno, CA (Fr) soil, LC, 2 wks

SMILES: O=C([O-])[C@H](O)[C@@H](O)[C@H](O[C@@H]1O[C@H](CO)[C@H](O)[C@H](O)[C@H]1O)[C@H](O)CO.[K+] [K-LB, potassium lactobionate]
MBC (soil microbial biomass; [2]): 7790.40^CD mg C kg -soil
MBC (soil microbial biomass; Akron, CO (Ak) soil, HC, 2 wks): 8349.51^AC mg C kg -soil
MBC (soil microbial biomass; [3]): 10597.30^BC mg C kg -soil
MBC (soil microbial biomass; Akron, CO (Ak) soil, LC, 2 wks): 11189.75^A mg C kg -soil
MBC (soil microbial biomass; [4]): 16689.85^AB mg C kg -soil
MBC (soil microbial biomass; [5]): 1369.60^A mg C kg -soil
MBC (soil microbial biomass; [6]): 7277.63^CD mg C kg -soil
MBC (soil microbial biomass; [7]): 12167.76^A mg C kg -soil

SMILES: O=C([O-])[C@H](O)[C@@H](O)[C@H](O[C@@H]1O[C@H](CO)[C@H](O)[C@H](O)[C@H]1O)[C@H](O)CO.O=C([O-])[C@H](O)[C@@H](O)[C@H](O[C@@H]1O[C@H](CO)[C@H](O)[C@H](O)[C@H]1O)[C@H](O)CO.[Ca+2] [Ca-LB, calcium lactobionate]
MBC (soil microbial biomass; [2]): 6395.35^CDE mg C kg -soil
MBC (soil microbial biomass; Akron, CO (Ak) soil, HC, 2 wks): 9197.28^ABC mg C kg -soil
MBC (soil microbial biomass; [3]): 9816.22^C mg C kg -soil
MBC (soil microbial biomass; Akron, CO (Ak) soil, LC, 2 wks): 13087.10^A mg C kg -soil
MBC (soil microbial biomass; [4]): 11289.89^BC mg C kg -soil
MBC (soil microbial biomass; [5]): 10362.94^A mg C kg -soil
MBC (soil microbial biomass; [6]): 7560.73^CD mg C kg -soil
MBC (soil microbial biomass; [7]): 10133.11^A mg C kg -soil

Weight of water absorbed per mole of substance [1]: highest
SMILES: O=C(O)[C@H](O)[C@@H](O)[C@H](O[C@@H]1O[C@H](CO)[C@H](O)[C@H](O)[C@H]1O)[C@H](O)CO [LBA, lactobionic acid]

SMILES: N.O=C(O)[C@H](O)[C@@H](O)[C@H](O[C@@H]1O[C@H](CO)[C@H](O)[C@H](O)[C@H]1O)[C@H](O)CO [NH4-LB, ammonium lactobionate]
MBC (soil microbial biomass; [2]): 869.62^EF mg C kg -soil
MBC (soil microbial biomass; Akron, CO (Ak) soil, HC, 2 wks): 11037.60^A mg C kg -soil
MBC (soil microbial biomass; [3]): 3225.38^DEF mg C kg -soil
MBC (soil microbial biomass; Akron, CO (Ak) soil, LC, 2 wks): 9911.52^A mg C kg -soil
MBC (soil microbial biomass; [4]): 18504.80^A mg C kg -soil
MBC (soil microbial biomass; [5]): 13627.26^A mg C kg -soil
MBC (soil microbial biomass; [6]): 739.12^EF mg C kg -soil
MBC (soil microbial biomass; [7]): 8610.50^AC mg C kg -soil
Total MBC compared between LB amendments (soil microbial biomass; at 1 month): lower
